This is an account of results in ChEMBL document CHEMBL4177762, “Combined Approach of Backbone Amide Linking and On-Resin N-Methylation for the Synthesis of Bioactive and Metabolically Stable Peptides” (J Med Chem, 2018).

Data set [1] concerns Staphylococcus aureus. Kind of data set: Antibacterial activity against Staphylococcus aureus ATCC 29213 assessed as growth inhibition up to 128 ug/ml. Format: functional, organism-based.
Data set [2] relates to Trypanosoma brucei rhodesiense. Kind of data set: Antiprotozoal activity against trypomastigote stage of Trypanosoma brucei rhodesiense STIB900 after 72 hrs by Alamar Blue assay. Format: functional, organism-based. Background: Alamar Blue is a resazurin reagent that responds to reducing activity.
The subject of data set [3] is Staphylococcus aureus. Kind of data set: Antibacterial activity against methicillin-resistant Staphylococcus aureus ATCC 43300 assessed as growth inhibition up to 128 ug/ml. It counts as functional, organism-based.
Another data set deals with Pseudomonas aeruginosa. Kind of data set: Antibacterial activity against Pseudomonas aeruginosa ATCC 27853 assessed as growth inhibition up to 128 ug/ml. Format: functional, organism-based.
The next data set deals with Plasmodium falciparum. Description: Antiprotozoal activity against IEF stage of Plasmodium falciparum NF54 after 48 hrs by [3H]-hypoxanthine incorporation assay. Format: functional, organism-based.
Another data set has as its system Enterococcus faecalis. Kind of data set: Antibacterial activity against Enterococcus faecalis ATCC 29212 assessed as growth inhibition up to 128 ug/ml. It counts as functional, organism-based.
In the next data set the test system is Micrococcus luteus. Description: Antibacterial activity against Micrococcus luteus ATCC 9341 assessed as growth inhibition up to 128 ug/ml. It counts as functional, organism-based.
In the next data set the test system is Escherichia coli. Description: Antibacterial activity against Escherichia coli ATCC 25922 assessed as growth inhibition up to 128 ug/ml. It counts as functional, organism-based.
The nature of data set [4]: Passive permeability of the compound at 500 uM after 5 hrs by PAMPA. It counts as ADME. On the technique in general: The PAMPA barrier holds no transporters, so it reflects passive diffusion.
The nature of data set [5]: Half life in Galleria mellonella hemolymph plasma at 0.5 mM by HPLC-MS method. Format: ADME, cell-free.
Data set [6] can be described thus: Drug level in Sprague-Dawley rat liver microsomes assessed as CYP450-mediated compound formation treated with (S)-2-amino-3-methyl-N-((S)-3-methyl-1-((S)-3-methyl-1-((S)-3-methyl-1-oxo-1-(phenethylamino)butan-2-ylamino)-1-oxobutan-2-ylamino)-1-oxobutan-2-yl)butanamide at 1 mM preincubated with NADPH regenerating system followed by microsome addition measured after 15 to 60 mins by HR-HPLC-MS method. It counts as ADME. Conditions: 1000 µM. On the technique in general: Liver microsomes are a subcellular fraction often used to study metabolism.

Values after ≈ are worked out from the molar mass of the structure shown. Active and inactive are the calls of the source. Non-standard residues stand in square brackets, D forms with d. Residues, ends and D or L forms follow the SMILES beside them. *: point of attachment. NH(4-OH-phenethyl) = Oc1ccc(CCN*)cc1; Tryptamide = c1ccc2c(CCN*)c[nH]c2c1; Val(3-OH) = CC(C)(O)[C@H](N)C(=O)O; NMeF = CN[C@@H](Cc1ccccc1)C(=O)O; NMeL = CN[C@@H](CC(C)C)C(=O)O; NHPhenethyl = c1ccc(CCN*)cc1; NMeV = CN[C@H](C(=O)O)C(C)C; NMeA = CN[C@@H](C)C(=O)O

As a reminder, the IC50 is the midpoint of a concentration-inhibition curve. A high value points to lower potency. By half-life is commonly meant the time needed for the level to fall by half in the phase considered. Read a low half-life as rapid decline.

Turning to `CN[C@@H](Cc1ccccc1)C(=O)N(C)[C@@H](Cc1ccccc1)C(=O)N(C)[C@@H](Cc1ccccc1)C(=O)N(C)[C@@H](Cc1ccccc1)C(=O)N(C)[C@@H](Cc1ccccc1)C(=O)NCCc1ccccc1` (H-[NMeF][NMeF][NMeF][NMeF][NMeF]-NHPhenethyl), the “growth inhibition (GI)” value in the data set on Staphylococcus aureus [1], with Staphylococcus aureus [3], with Pseudomonas aeruginosa, with Enterococcus faecalis, in the data set with Micrococcus luteus and with Escherichia coli was “inactive” each time. For the same molecule, the result in data set [2] was Active. Further, the IC50 in the data set with Plasmodium falciparum was determined as 0.2 µg/mL (≈ 0.216 µM).

For the molecule `CN[C@H](C(=O)N(C)[C@H](C(=O)N(C)[C@H](C(=O)N(C)[C@@H](Cc1ccccc1)C(=O)NCCc1ccccc1)C(C)C)C(C)C)C(C)C` (H-[NMeV][NMeV][NMeV][NMeF]-NHPhenethyl), the permeability entry in data set [4] is recorded as “Permeable”.

In the case of `CC(C)[C@H](N)C(=O)N[C@H](C(=O)N[C@H](C(=O)N[C@@H](Cc1ccccc1)C(=O)NCCc1ccccc1)C(C)C)C(C)C` (H-VVVF-NHPhenethyl), in data set [4], the permeability result is on record as “Impermeable”.

Consider `CC(C)C[C@H](NC(=O)[C@@H](NC(=O)[C@@H](NC(=O)[C@@H](N)C(C)C)C(C)C)C(C)C)C(=O)NCCc1ccccc1` (H-VVVL-NHPhenethyl), for which, in data set [5], the half-life at 500 µM came out at 30 min. The permeability result in data set [4] is listed as “Impermeable”.

The molecule `CN[C@@H](CC(C)C)C(=O)N(C)[C@@H](CC(C)C)C(=O)N(C)[C@@H](CC(C)C)C(=O)N(C)[C@@H](CC(C)C)C(=O)NCCc1c[nH]c2ccccc12` (H-[NMeL][NMeL][NMeL][NMeL]-Tryptamide) gave an IC50 with Plasmodium falciparum of 0.6 µg/mL (≈ 0.897 µM).

Regarding `CC(C)[C@H](N)C(=O)N[C@H](C(=O)N[C@H](C(=O)N[C@H](C(=O)NCCc1ccccc1)C(C)C)C(C)C)C(C)(C)O` (H-V[Val(3-OH)]VV-NHPhenethyl), the Drug metabolism entry in data set [6] is recorded as “Metabolite_Detected”.

In the data set with Plasmodium falciparum, `CC(C)C[C@@H](NC=O)C(=O)N[C@@H]1C(=O)N[C@H](Cc2ccccc2)C(=O)N[C@H](C(C)C)C(=O)N[C@@H](Cc2ccc(O)cc2)C(=O)N[C@@H](Cc2c[nH]c3ccccc23)C(=O)O[C@@H]1C` had an IC50 of 0.995 µg/mL (≈ 1.19 µM).

`CN[C@@H](Cc1ccccc1)C(=O)N[C@H](C(=O)N(C)[C@H](C(=O)N(C)[C@H](C(=O)N(C)[C@H](C(=O)N(C)[C@@H](Cc1ccccc1)C(=O)NCCc1ccccc1)C(C)C)C(C)C)C(C)C)C(C)C` (H-[NMeF]V[NMeV][NMeV][NMeV][NMeF]-NHPhenethyl) had an IC50 with Plasmodium falciparum of 0.14 µg/mL (≈ 0.159 µM).

As to `CN[C@@H](Cc1ccccc1)C(=O)N(C)[C@H](C(=O)N(C)[C@@H](CC(C)C)C(=O)N(C)[C@H](C(=O)NCCc1ccccc1)C(C)C)C(C)C` (H-[NMeF][NMeV][NMeL][NMeV]-NHPhenethyl), half-maximal inhibition with Plasmodium falciparum (IC50) was put at 0.1 µg/mL (≈ 0.157 µM).

Consider `CN[C@H](C(=O)N(C)[C@H](C(=O)N(C)[C@H](C(=O)N(C)[C@@H](CC(C)C)C(=O)NCCc1ccccc1)C(C)C)C(C)C)C(C)C` (H-[NMeV][NMeV][NMeV][NMeL]-NHPhenethyl), for which the half-life at 500 µM in data set [5] is above 240 min. Also, the permeability result in data set [4] was “Permeable”.

Regarding `CC(C)[C@H](N)C(=O)N[C@H](C(=O)N[C@H](C(=O)N[C@H](C(=O)NCCc1ccc(O)cc1)C(C)C)C(C)C)C(C)C` (H-VVVV-{NH(4-OH-phenethyl)}), the Drug metabolism result in data set [6] is listed as “Metabolite_Detected”.

For `CC(C)[C@H](N)C(=O)N[C@H](C(=O)N[C@H](C(=O)N[C@H](C(=O)NCCc1ccccc1)C(C)C)C(C)(C)O)C(C)C` (H-VV[Val(3-OH)]V-NHPhenethyl), the Drug metabolism result in data set [6] is recorded as “Metabolite_Detected”.

In the data set with Plasmodium falciparum, `CN[C@@H](CC(C)C)C(=O)N(C)[C@@H](CC(C)C)C(=O)N(C)[C@@H](CC(C)C)C(=O)N(C)[C@@H](C)C(=O)NCCc1ccccc1` (H-[NMeL][NMeL][NMeL][NMeA]-NHPhenethyl) came in with an IC50 of 31 µg/mL (≈ 52.7 µM).
